± gives the expanded uncertainty stated by the source.
Key:
[1] = excess molar enthalpy (molar enthalpy of mixing); xn = mol fraction of the nth substance listed; conditions: 318.15 K, 101.3 kPa, Liquid
[2] = xn = mol fraction of the nth substance listed; conditions: 318.15 K, 101.3 kPa, Liquid

Molecule CCCCCCCCCCCCCCCCC [heptadecane] + COC(C)=O has an excess molar enthalpy ([1]; x2 = 0.113) of 0.176 ± 0.00311 kcal/mol, an excess molar enthalpy ([1]; x2 = 0.2193) of 0.327 ± 0.0055 kcal/mol and an excess molar enthalpy ([1]; x2 = 0.3028) of 0.434 ± 0.00717 kcal/mol. For the same molecule, the excess molar enthalpy ([1]; x2 = 0.3894) was 0.521 ± 0.00837 kcal/mol, the excess molar enthalpy ([1]; x2 = 0.4626) was 0.576 ± 0.00932 kcal/mol and the excess molar enthalpy ([1]; x2 = 0.5247) was 0.606 ± 0.0098 kcal/mol. For the same molecule, the excess molar enthalpy ([1]; x2 = 0.5794) was 0.615 ± 0.0098 kcal/mol, the excess molar enthalpy ([1]; x2 = 0.6278) was 0.607 ± 0.0098 kcal/mol and the excess molar enthalpy ([1]; x2 = 0.6655) was 0.593 ± 0.00956 kcal/mol. The excess molar enthalpy ([1]; x2 = 0.6858) was 0.582 ± 0.00932 kcal/mol, the excess molar enthalpy ([1]; x2 = 0.7195) was 0.56 ± 0.00908 kcal/mol and the excess molar enthalpy ([1]; x2 = 0.7539) was 0.528 ± 0.0086 kcal/mol. For the same molecule, the excess molar enthalpy ([1]; x2 = 0.7883) was 0.489 ± 0.00789 kcal/mol, the excess molar enthalpy ([1]; x2 = 0.8246) was 0.444 ± 0.00717 kcal/mol and the excess molar enthalpy ([1]; x2 = 0.861) was 0.398 ± 0.00645 kcal/mol. For the same molecule, the excess molar enthalpy ([1]; x2 = 0.8938) was 0.346 ± 0.00574 kcal/mol, the excess molar enthalpy ([1]; x2 = 0.9264) was 0.29 ± 0.00478 kcal/mol and the excess molar enthalpy ([1]; x2 = 0.9502) was 0.236 ± 0.00406 kcal/mol. It also gave an excess molar enthalpy ([1]; x2 = 0.9763) of 0.145 ± 0.00263 kcal/mol, an excess molar volume ([2]; x2 = 0.0872) of 4.73e-07 ± 3.5e-08 m3/mol and an excess molar volume ([2]; x2 = 0.1719) of 9e-07 ± 3.9e-08 m3/mol. For the same molecule, the excess molar volume ([2]; x2 = 0.2901) was 1.422e-06 ± 4.4e-08 m3/mol, the excess molar volume ([2]; x2 = 0.3832) was 1.742e-06 ± 4.7e-08 m3/mol and the excess molar volume ([2]; x2 = 0.4682) was 1.916e-06 ± 4.9e-08 m3/mol. For the same molecule, the excess molar volume ([2]; x2 = 0.5391) was 1.999e-06 ± 5e-08 m3/mol, the excess molar volume ([2]; x2 = 0.5988) was 2.022e-06 ± 5e-08 m3/mol and the excess molar volume ([2]; x2 = 0.6524) was 1.981e-06 ± 4.9e-08 m3/mol. For the same molecule, the excess molar volume ([2]; x2 = 0.694) was 1.916e-06 ± 4.9e-08 m3/mol, the excess molar volume ([2]; x2 = 0.7348) was 1.806e-06 ± 4.8e-08 m3/mol and the excess molar volume ([2]; x2 = 0.7632) was 1.698e-06 ± 4.7e-08 m3/mol. It also gave an excess molar volume ([2]; x2 = 0.8016) of 1.579e-06 ± 4.6e-08 m3/mol, an excess molar volume ([2]; x2 = 0.827) of 1.455e-06 ± 4.5e-08 m3/mol and an excess molar volume ([2]; x2 = 0.8469) of 1.363e-06 ± 4.4e-08 m3/mol. For the same molecule, the excess molar volume ([2]; x2 = 0.8704) was 1.246e-06 ± 4.3e-08 m3/mol, the excess molar volume ([2]; x2 = 0.9208) was 9.07e-07 ± 3.9e-08 m3/mol and the excess molar volume ([2]; x2 = 0.9545) was 5.89e-07 ± 3.6e-08 m3/mol. The excess molar volume ([2]; x2 = 0.9807) was 2.74e-07 ± 3.4e-08 m3/mol.
In the case of COC(C)=O [methyl ethanoate] + CCCCCCC, the excess molar enthalpy ([1]; x1 = 0.0778) is reported as 0.136 ± 0.00263 kcal/mol, the excess molar enthalpy ([1]; x1 = 0.1534) is reported as 0.243 ± 0.00406 kcal/mol and the excess molar enthalpy ([1]; x1 = 0.2251) is reported as 0.331 ± 0.0055 kcal/mol. For the same molecule, the excess molar enthalpy ([1]; x1 = 0.2785) was 0.378 ± 0.00621 kcal/mol, the excess molar enthalpy ([1]; x1 = 0.3445) was 0.426 ± 0.00693 kcal/mol and the excess molar enthalpy ([1]; x1 = 0.4038) was 0.451 ± 0.00741 kcal/mol. For the same molecule, the excess molar enthalpy ([1]; x1 = 0.4555) was 0.461 ± 0.00765 kcal/mol, the excess molar enthalpy ([1]; x1 = 0.5034) was 0.465 ± 0.00765 kcal/mol and the excess molar enthalpy ([1]; x1 = 0.5451) was 0.461 ± 0.00741 kcal/mol. For the same molecule, the excess molar enthalpy ([1]; x1 = 0.5759) was 0.456 ± 0.00741 kcal/mol, the excess molar enthalpy ([1]; x1 = 0.6498) was 0.428 ± 0.00693 kcal/mol and the excess molar enthalpy ([1]; x1 = 0.6832) was 0.416 ± 0.00693 kcal/mol. For the same molecule, the excess molar enthalpy ([1]; x1 = 0.7322) was 0.389 ± 0.00645 kcal/mol, the excess molar enthalpy ([1]; x1 = 0.7698) was 0.356 ± 0.00598 kcal/mol and the excess molar enthalpy ([1]; x1 = 0.8184) was 0.313 ± 0.00526 kcal/mol. For the same molecule, the excess molar enthalpy ([1]; x1 = 0.873) was 0.25 ± 0.0043 kcal/mol, the excess molar enthalpy ([1]; x1 = 0.9036) was 0.189 ± 0.00335 kcal/mol and the excess molar enthalpy ([1]; x1 = 0.9534) was 0.108 ± 0.00206 kcal/mol. The excess molar volume ([2]; x1 = 0.096) was 6.73e-07 ± 1.9e-08 m3/mol, the excess molar volume ([2]; x1 = 0.1583) was 9.83e-07 ± 2e-08 m3/mol and the excess molar volume ([2]; x1 = 0.2293) was 1.293e-06 ± 2.2e-08 m3/mol. The excess molar volume ([2]; x1 = 0.2947) was 1.495e-06 ± 2.2e-08 m3/mol, the excess molar volume ([2]; x1 = 0.3534) was 1.597e-06 ± 2.3e-08 m3/mol and the excess molar volume ([2]; x1 = 0.408) was 1.665e-06 ± 2.3e-08 m3/mol. For the same molecule, the excess molar volume ([2]; x1 = 0.4619) was 1.705e-06 ± 2.3e-08 m3/mol, the excess molar volume ([2]; x1 = 0.5159) was 1.699e-06 ± 2.3e-08 m3/mol and the excess molar volume ([2]; x1 = 0.5572) was 1.659e-06 ± 2.3e-08 m3/mol. For the same molecule, the excess molar volume ([2]; x1 = 0.6064) was 1.605e-06 ± 2.3e-08 m3/mol, the excess molar volume ([2]; x1 = 0.6501) was 1.535e-06 ± 2.3e-08 m3/mol and the excess molar volume ([2]; x1 = 0.6915) was 1.451e-06 ± 2.2e-08 m3/mol. The excess molar volume ([2]; x1 = 0.7275) was 1.345e-06 ± 2.2e-08 m3/mol, the excess molar volume ([2]; x1 = 0.7645) was 1.228e-06 ± 2.1e-08 m3/mol and the excess molar volume ([2]; x1 = 0.8471) was 8.83e-07 ± 2e-08 m3/mol. For the same molecule, the excess molar volume ([2]; x1 = 0.9111) was 5.53e-07 ± 1.8e-08 m3/mol and the excess molar volume ([2]; x1 = 0.9577) was 2.83e-07 ± 1.7e-08 m3/mol.
In the case of CCCCCCCCC [nonane] + CCOC(C)=O, the excess molar enthalpy ([1]; x2 = 0.0596) is reported as 0.0869 ± 0.00174 kcal/mol, the excess molar enthalpy ([1]; x2 = 0.131) is reported as 0.172 ± 0.00311 kcal/mol and the excess molar enthalpy ([1]; x2 = 0.2117) is reported as 0.253 ± 0.0043 kcal/mol. For the same molecule, the excess molar enthalpy ([1]; x2 = 0.295) was 0.316 ± 0.00526 kcal/mol, the excess molar enthalpy ([1]; x2 = 0.3664) was 0.362 ± 0.00598 kcal/mol and the excess molar enthalpy ([1]; x2 = 0.436) was 0.394 ± 0.00645 kcal/mol. The excess molar enthalpy ([1]; x2 = 0.4899) was 0.406 ± 0.00669 kcal/mol, the excess molar enthalpy ([1]; x2 = 0.5447) was 0.408 ± 0.00669 kcal/mol and the excess molar enthalpy ([1]; x2 = 0.5881) was 0.399 ± 0.00645 kcal/mol. The excess molar enthalpy ([1]; x2 = 0.6166) was 0.391 ± 0.00645 kcal/mol, the excess molar enthalpy ([1]; x2 = 0.629) was 0.383 ± 0.00621 kcal/mol and the excess molar enthalpy ([1]; x2 = 0.6629) was 0.373 ± 0.00621 kcal/mol. It also gave an excess molar enthalpy ([1]; x2 = 0.7061) of 0.347 ± 0.00574 kcal/mol, an excess molar enthalpy ([1]; x2 = 0.752) of 0.32 ± 0.00526 kcal/mol and an excess molar enthalpy ([1]; x2 = 0.7991) of 0.277 ± 0.00454 kcal/mol. It also gave an excess molar enthalpy ([1]; x2 = 0.8421) of 0.235 ± 0.00406 kcal/mol, an excess molar enthalpy ([1]; x2 = 0.8875) of 0.177 ± 0.00311 kcal/mol and an excess molar enthalpy ([1]; x2 = 0.9312) of 0.118 ± 0.00222 kcal/mol. For the same molecule, the excess molar enthalpy ([1]; x2 = 0.9672) was 0.0591 ± 0.00131 kcal/mol, the excess molar volume ([2]; x2 = 0.0916) was 4.94e-07 ± 1.8e-08 m3/mol and the excess molar volume ([2]; x2 = 0.1769) was 8.53e-07 ± 1.9e-08 m3/mol. The excess molar volume ([2]; x2 = 0.2442) was 1.049e-06 ± 2e-08 m3/mol, the excess molar volume ([2]; x2 = 0.3108) was 1.228e-06 ± 2.1e-08 m3/mol and the excess molar volume ([2]; x2 = 0.3462) was 1.289e-06 ± 2.1e-08 m3/mol. The excess molar volume ([2]; x2 = 0.4363) was 1.418e-06 ± 2.2e-08 m3/mol, the excess molar volume ([2]; x2 = 0.4938) was 1.446e-06 ± 2.2e-08 m3/mol and the excess molar volume ([2]; x2 = 0.5469) was 1.447e-06 ± 2.2e-08 m3/mol. It also gave an excess molar volume ([2]; x2 = 0.5934) of 1.426e-06 ± 2.2e-08 m3/mol, an excess molar volume ([2]; x2 = 0.6418) of 1.361e-06 ± 2.2e-08 m3/mol and an excess molar volume ([2]; x2 = 0.6869) of 1.292e-06 ± 2.2e-08 m3/mol. For the same molecule, the excess molar volume ([2]; x2 = 0.7308) was 1.202e-06 ± 2.1e-08 m3/mol, the excess molar volume ([2]; x2 = 0.7614) was 1.142e-06 ± 2.1e-08 m3/mol and the excess molar volume ([2]; x2 = 0.8417) was 8.49e-07 ± 1.9e-08 m3/mol. For the same molecule, the excess molar volume ([2]; x2 = 0.9044) was 5.78e-07 ± 1.8e-08 m3/mol and the excess molar volume ([2]; x2 = 0.9558) was 2.94e-07 ± 1.7e-08 m3/mol.

Source: the NIST ThermoML archive (doi:10.1016/j.jct.2003.11.008)
